Measured values published in patent EP0212822A1, “A composition containing a plant growth regulator and an alkanol and a method of using the same” (ICI AMERICAS INC., priority 1985, dated 1987).

Assays:
[1] = test system: Water Oak; assay: Trunk injection, holes at 4 inch intervals, Retardation and Uniformity Ratings; assay type: in vivo, Quercus nigra (Water Oak); design: key to Uniformity Rating (U): 0 = no effect from PGR; 1 = poor; 2 = fair; 3 = acceptable; 4 = very good; 5 = excellent; conditions: 38 ml/hole
Protocol: (§1) The examples which follow exemplify the improvements obtained by this invention. However, these examples are not intended to limit the scope of the invention. In Examples 1-41, the subject trees were injected at a distance approximately one foot from the soil line by drilling 7/32 inch diameter holes to a 2 inch depth at a 30-45° angle tangential to the trunk with a pressure injector (150 psi) purchased from the Asplundh Tree Expert Co., Company No. 346-3502. The results are expressed in terms of Retardation and Uniformity Ratings. The Retardation rating scale is as follows: • 0 = no retardataion • 1 = 1-20% retardation • 2 = 21-40% retardation • 3 = 41-60% retardation • 4 = 61-80% retardation • 5 = 81-100% retardation
(§2) The Uniformity Rating is a measure of the consistency of response to the treatment between different branches of the tree. The Uniformity scale employed is as follows: • 0 = no effect from PGR • 1 = poor • 2 = fair • 3 = acceptable • 4 = very good • 5 = excellent
(§3) 10 (0.034 moles), 20 (0.068 moles) and 40 grams (0.136 moles) of (2RS, 3RS)-1-(4-chlorophenyl)-4,4-dimethyl-2-l,2,4-triazol-l-yl)pentan-3-ol (PGR) were dissolved in 1,1 and 1 liter, respectively, of methanol at room temperature and was stirred until the solution was clear, approximately 20 to 60 minutes. In these examples, the injection holes were placed at approximate 4 inch intervals.

[2] = test system: Water Oak; assay: Trunk injection, holes at 8 inch intervals, Retardation and Uniformity Ratings; assay type: in vivo, Quercus nigra (Water Oak); design: key to Uniformity Rating (U): 0 = no effect from PGR; 1 = poor; 2 = fair; 3 = acceptable; 4 = very good; 5 = excellent; key to Retardation Rating (R): 0 = no retardataion; 1 = 1-20% retardation; 2 = 21-40% retardation; 3 = 41-60% retardation; 4 = 61-80% retardation; 5 = 81-100% retardation; conditions: 75 ml/hole
Protocol: as §1, §2
(§4) 10 (0.034 moles), 20 (0.068 moles) and 40 grams (0.136 moles) of (2RS, 3RS)-1-(4-chlorophenyl)-4,4-dimethyl-2-1,2,4-triazol-1-yl)pentan-3-ol (PGR) was dissolved in 1,1 and 1 liter, respectively, of methanol at room temperature and was stirred until the solution was clear, approximately 20 to 60 minutes. In these examples, the injection holes were placed at approximate 8 inch intervals.

[3] = test system: Willow Oak; assay: Trunk injection, holes at 4 inch intervals, Retardation and Uniformity Ratings; assay type: in vivo, Quercus phellos (Willow Oak); design: key to Uniformity Rating (U): 0 = no effect from PGR; 1 = poor; 2 = fair; 3 = acceptable; 4 = very good; 5 = excellent; conditions: 38 ml/hole
Protocol: as §1, §2, §3

[4] = Absorption kinetics: binding of 14C-labelled compound to sawdust; assay type: physicochemical, Betula pendula-Roth (Birch); conditions: for µg in solution: 2 gm sawdust, 20 ml water, 10 mg/l 14C (II)
Protocol: This example illustrates the binding (absorption) properties of the PGR of this invention to wood of the-conducting tissue of Betula pendula-Roth (Birch). The compounds of this invention preferably show partial and reversible binding which enhances the slow release effect by initial precipitation in the trunk. Sawdust samples were obtained from the outer wood of freshly cut, debarked logs. 2 gm samples of sawdust were shaken with 20 ml water containing ^14C triazole-labelled (II) at a concentration of 10 mg 1^-1. At intervals, the aqueous phase was subsampled, and the concentration of (II) determined by scintillation counting. A decrease in concentration reflects binding to the wood, expressed as kd (ratio of chemical bound to wood:chemical in solution).

[5] = test system: Sycamore; assay: Trunk injection, holes at 8 inch intervals, Retardation and Uniformity Ratings; assay type: in vivo, Platanus occidentalis (Sycamore); design: key to Uniformity Rating (U): 0 = no effect from PGR; 1 = poor; 2 = fair; 3 = acceptable; 4 = very good; 5 = excellent; conditions: 75 ml/hole
Protocol: as §1, §2, §4

[6] = week 24, 10 g PGR in 1 liter methanol
[7] = week 56, 10 g PGR in 1 liter methanol
[8] = week 24, 10 g PGR in 1 liter methanol, listed as 7, 10 injection holes, 750 ml per tree
[9] = week 24, 10 g PGR in 1 liter methanol, listed as 8, 10 injection holes, 750 ml per tree
[10] = week 24, 10 g PGR in 1 liter methanol, listed as 9, 6 injection holes, 450 ml per tree
[11] = week 24, 10 g PGR in 1 liter methanol, listed as 10, 6 injection holes, 450 ml per tree
[12] = week 24, 20 g PGR in 1 liter methanol, listed as 11
[13] = week 24, 20 g PGR in 1 liter methanol, listed as 12
[14] = week 24, 20 g PGR in 1 liter methanol, listed as 13
[15] = week 24, 40 g PGR in 1 liter methanol, listed as 15, 7 injection holes, 525 ml per tree
[16] = week 24, 40 g PGR in 1 liter methanol, listed as 16, 10 injection holes, 750 ml per tree
[17] = week 24, 40 g PGR in 1 liter methanol, listed as 17, 6 injection holes, 450 ml per tree
[18] = week 56, 10 g PGR in 1 liter methanol, listed as 7, 10 injection holes, 750 ml per tree
[19] = week 56, 10 g PGR in 1 liter methanol, listed as 8, 10 injection holes, 750 ml per tree
[20] = week 56, 10 g PGR in 1 liter methanol, listed as 9, 6 injection holes, 450 ml per tree
[21] = week 56, 10 g PGR in 1 liter methanol, listed as 10, 6 injection holes, 450 ml per tree
[22] = week 56, 20 g PGR in 1 liter methanol, listed as 11
[23] = week 56, 20 g PGR in 1 liter methanol, listed as 12
[24] = week 56, 20 g PGR in 1 liter methanol, listed as 13
[25] = week 56, 40 g PGR in 1 liter methanol, listed as 15, 7 injection holes, 525 ml per tree
[26] = week 56, 40 g PGR in 1 liter methanol, listed as 16, 10 injection holes, 750 ml per tree
[27] = week 56, 40 g PGR in 1 liter methanol, listed as 17, 6 injection holes, 450 ml per tree
[28] = week 24, 20 g PGR in 1 liter methanol
[29] = week 24, 40 g PGR in 1 liter methanol
[30] = week 56, 20 g PGR in 1 liter methanol
[31] = week 56, 40 g PGR in 1 liter methanol

CC(C)(C)[C@@H](O)[C@@H](Cc1ccc(Cl)cc1)n1cncn1 (racemic) [Formula (II), (2RS,3RS)-1-(4-chlorophenyl-4,4-dimethyl-2-1,2,4-triazol-1-yl)pentan-3-ol]
74 µg: µg in solution ([4]; 24 hours)
72 µg: µg in solution ([4]; 8 hours)
0.7: kd (ratio of chemical bound to wood:chemical in solution) ([4]; 0.5 hours)
1 (1 = 1-20% retardation): Retardation Rating (R) [2, 15]
3: Uniformity Rating (U) [2, 8] | Uniformity Rating (U) [2, 9] | Uniformity Rating (U) [2, 10] | Uniformity Rating (U) [2, 12] | Uniformity Rating (U) [2, 17] | Uniformity Rating (U) [2, 18] | Uniformity Rating (U) [2, 19] | Uniformity Rating (U) [2, 26] | Uniformity Rating (U) [2, 27] | Uniformity Rating (U) [3, 28]
116 µg: µg in solution ([4]; 0.5 hours)
4: Uniformity Rating (U) [2, 14] | Uniformity Rating (U) [2, 20] | Uniformity Rating (U) [2, 23] | Uniformity Rating (U) [2, 24] | Uniformity Rating (U) [2, 25] | Uniformity Rating (U) [3, 29] | Uniformity Rating (U) [3, 31] | Uniformity Rating (U) [5, 28] | Uniformity Rating (U) [5, 30]
5 (5 = 81-100% retardation): Retardation Rating (R) [1, 6] | Retardation Rating (R) [1, 7] | Retardation Rating (R) [2, 11] | Retardation Rating (R) [2, 13] | Retardation Rating (R) [2, 20] | Retardation Rating (R) [2, 21] | Retardation Rating (R) [2, 23] | Retardation Rating (R) [3, 30]
3 (3 = 41-60% retardation): Retardation Rating (R) [2, 9] | Retardation Rating (R) [2, 10] | Retardation Rating (R) [2, 17] | Retardation Rating (R) [2, 18] | Retardation Rating (R) [2, 19] | Retardation Rating (R) [2, 26] | Retardation Rating (R) [2, 27] | Retardation Rating (R) [5, 28]
0: Retardation Rating (R) [2, 16] | Uniformity Rating (U) [2, 16]
1.7: kd (ratio of chemical bound to wood:chemical in solution) ([4]; 4 hours) | kd (ratio of chemical bound to wood:chemical in solution) ([4]; 24 hours)
1: Uniformity Rating (U) [2, 15]
1.4: kd (ratio of chemical bound to wood:chemical in solution) ([4]; 1 hour)
2 (2 = 21-40% retardation): Retardation Rating (R) [2, 8] | Retardation Rating (R) [2, 12]
4 (4 = 61-80% retardation): Retardation Rating (R) [2, 14] | Retardation Rating (R) [2, 22] | Retardation Rating (R) [2, 24] | Retardation Rating (R) [2, 25] | Retardation Rating (R) [3, 28] | Retardation Rating (R) [3, 29] | Retardation Rating (R) [3, 31] | Retardation Rating (R) [5, 30]
200 µg: µg in solution ([4]; 0 hours)
81 µg: µg in solution ([4]; 2 hours)
75 µg: µg in solution ([4]; 4 hours)
1.8: kd (ratio of chemical bound to wood:chemical in solution) ([4]; 8 hours) | kd (ratio of chemical bound to wood:chemical in solution) ([4]; 48 hours)
1.5: kd (ratio of chemical bound to wood:chemical in solution) ([4]; 2 hours)
76 µg: µg in solution ([4]; 48 hours)
5: Uniformity Rating (U) [1, 6] | Uniformity Rating (U) [1, 7] | Uniformity Rating (U) [2, 11] | Uniformity Rating (U) [2, 13] | Uniformity Rating (U) [2, 21] | Uniformity Rating (U) [2, 22] | Uniformity Rating (U) [3, 30]
84 µg: µg in solution ([4]; 1 hour)
